# Values quoted from earlier work, collected in patent US6420614B1, “Process for obtaining 3′-epilutein” (Industrial Organica, S.A. DE C.V., priority 2000, dated 2002).
# Tested on: egg yolk
# Conditions: relative potency of zeaxanthin stereoisomers; (3R,3′R)-zeaxanthin = 100%
row,SMILES,potency in pigmenting of egg yolk [%]
1,"CC1=C(/C=C/C(C)=C/C=C/C(C)=C/C=C/C=C(C)/C=C/C=C(C)/C=C/C2=C(C)C[C@@H](O)CC2(C)C)C(C)(C)C[C@H](O)C1 [(3RS, 3′SR)-zeaxanthin (racemic), (3RS, 3′SR)-zeaxanthin]",92
2,"CC1=C(/C=C/C(C)=C/C=C/C(C)=C/C=C/C=C(C)/C=C/C=C(C)/C=C/C2=C(C)C[C@H](O)CC2(C)C)C(C)(C)C[C@@H](O)C1 (single isomer, unassigned) [(3S, 3′S)-zeaxanthin (enantiomer)]",86
3,"CC1=C(/C=C/C(C)=C/C=C/C(C)=C/C=C/C=C(C)/C=C/C=C(C)/C=C/C2=C(C)C[C@H](O)CC2(C)C)C(C)(C)C[C@H](O)C1 [(3R, 3′S)-zeaxanthin (meso, II), (3R,3′S)-zeaxanthin]",37
4,"CC1=C(/C=C/C(C)=C/C=C/C(C)=C/C=C/C=C(C)/C=C/C=C(C)/C=C/C2=C(C)C[C@@H](O)CC2(C)C)C(C)(C)C[C@H](O)C1 [(3R, 3′R)-zeaxanthin (III), (3R,3′R)-zeaxanthin]",100
